Measured values taken from the NIST ThermoML archive (doi:10.1021/acs.jced.6b00812).

Experiment: molar heat capacity at constant pressure; mn = molality of the nth substance listed, in mol/kg
Details: 100 kPa, Liquid, Small sample (50 mg) DSC

[Ca+2].[Cl-].[Cl-] [calcium chloride] + O
molar heat capacity at constant pressure [J/K/mol]
Details	m1 = 0.49	m1 = 1.17	m1 = 1.83	m1 = 2.51	m1 = 3.14	m1 = 3.8	m1 = 4.41	m1 = 5.1	m1 = 5.76	m1 = 6.39
168.15 K	–	–	–	–	–	56.81	58.42	–	–	–
178.15 K	–	–	–	–	–	57.77	59.16	–	–	–
188.15 K	–	–	–	–	–	58.49	59.66	–	–	–
198.15 K	–	–	–	–	–	59.45	60.4	–	–	–
208.15 K	–	–	–	–	–	60.41	61.15	–	–	–
218.15 K	–	–	–	–	–	61.37	61.9	–	–	–
228.15 K	–	–	–	–	62.08	62.09	62.64	–	–	–
238.15 K	–	–	–	63.47	63	63.05	63.39	64.08	–	–
248.15 K	–	68.18	65.68	64.35	63.92	63.77	64.13	64.6	–	–
258.15 K	72.68	68.77	66.51	65.23	64.61	64.48	64.63	65.37	66.09	–
268.15 K	72.49	69.37	67.14	65.89	65.3	65.2	65.38	65.89	66.62	–
278.15 K	72.68	69.77	67.77	66.55	65.76	65.68	65.87	66.66	67.42	67.93
288.15 K	72.68	69.97	68.19	66.99	66.22	66.16	66.37	67.18	67.96	68.2
298.15 K	72.87	70.37	68.61	67.43	66.91	66.64	67.12	67.7	68.49	68.76

[Cl-].[Cl-].[Mg+2] [magnesium chloride] + O
molar heat capacity at constant pressure [J/K/mol]
Details	m1 = 0.58	m1 = 1.12	m1 = 1.67	m1 = 2.19	m1 = 2.74	m1 = 3.36	m1 = 3.88	m1 = 4.46	m1 = 5.04	m1 = 5.63
168.15 K	–	–	–	–	–	49.33	49.35	–	–	–
178.15 K	–	–	–	–	–	51.34	51.42	51.55	–	–
188.15 K	–	–	–	–	–	53.36	53.27	53.21	–	–
198.15 K	–	–	–	–	–	55.38	55.11	54.88	–	–
208.15 K	–	–	–	–	–	57.17	56.72	56.54	–	–
218.15 K	–	–	–	–	–	58.74	58.34	57.97	57.68	57.28
228.15 K	–	–	–	62	61.04	60.09	59.49	59.15	58.66	58.54
238.15 K	–	–	65.07	63.46	62.34	61.43	60.87	60.34	59.88	59.54
248.15 K	–	68.59	65.88	64.3	63.42	62.33	61.8	61.29	60.61	60.55
258.15 K	72.24	68.98	66.69	65.35	64.29	63.23	62.49	62	61.59	61.3
268.15 K	72.24	69.57	67.5	66.19	65.16	64.12	63.41	62.72	62.08	62.06
278.15 K	72.24	69.96	67.9	66.61	65.59	64.57	63.87	63.19	62.81	62.56
288.15 K	72.43	70.16	68.31	67.23	66.02	65.02	64.33	63.67	63.3	63.06
298.15 K	72.43	70.55	68.71	67.44	66.45	65.47	64.79	64.14	63.55	63.56

[Cl-].[K+] [potassium chloride] + O
molar heat capacity at constant pressure [J/K/mol]
Details	m1 = 0.53	m1 = 0.97	m1 = 1.41	m1 = 1.86	m1 = 2.34	m1 = 2.79	m1 = 3.25	m1 = 3.72	m1 = 4.15	m1 = 4.62
238.15 K	–	–	–	–	–	–	–	–	65.84	–
248.15 K	–	–	–	70.06	–	68.17	67.44	66.86	66.5	–
258.15 K	74.76	72.91	71.45	70.26	69.43	68.59	68.08	67.29	66.94	–
268.15 K	74.2	72.72	71.45	70.46	69.64	68.79	68.29	67.72	67.16	66.63
278.15 K	73.83	72.72	71.64	70.66	69.84	69	68.5	67.93	67.38	66.85
288.15 K	73.83	72.72	71.64	70.66	69.84	69.21	68.71	67.93	67.6	67.08
298.15 K	73.83	72.72	71.64	70.86	70.04	69.42	68.71	68.15	67.6	67.08
